Patent publication US8029980B2, “Identification and use of agents that modulate oncogenic transcription agent activity” (The Board of Trustees of the University of Illinois, priority 2006, dated 2011)

Tests used:
[1] = system: human breast cancer MDA-MB-231 cell line; conditions: earlier report (ref. 26); cited from earlier work
[2] = system: Liver cancer cell lines Huh7, Hep-3B and SK-Hep; assay: FoxM1 and cleaved caspase-3 immunoblot in liver cancer cell lines; type: cell-based, human; conditions: 10 μM, 48 hrs
Experimental: FIG. 9. […] Liver cancer cell lines Huh7, Hep-3B and SK-Hep were treated with 10 μM Siomycin A and thiostrepton, respectively, for 48 hrs, and the cell lysates were analyzed for the levels of FoxM1 and cleaved caspase-3 by immunoblotting.
(§1) Immunoblotting was performed as described (18-20) with antibodies specific for p21 (556431; BD Pharmingen), survivin (sc-10811; Santa Cruz), cleaved caspase-3 (9664; Cell Signaling), and β-actin (A5441; Sigma) antibodies. Immunoblot for FoxM1 was done using the previously generated rabbit antisera (2), and phospho-FoxM1 was detected using the MPM2 monoclonal antibody (Upstate Biotechnology) which recognizes the phosphorylated protein sequence phosphoserine/phosphothreonine-proline.
First, we treated liver cancer cell lines Huh7, Hep-3B and SK-Hep that have deleted or mutant p53 with these compounds for 48 hrs, and the cell lysates were analyzed for the levels of FoxM1 and cleaved caspase-3 by immunoblotting.

[3] = system: SV40-transformed MRC-5 human fetal lung fibroblasts; assay: Apoptosis assay (DAPI staining, caspase-3 and survivin immunoblot) in transformed fibroblasts; type: cell-based; conditions: SV40-transformed cells
Experimental: FIG. 4. Anti-cancer properties of Siomycin A. (A) Representative photographs from soft agar experiment as described in Example 1 are shown. (B) Number of colonies in the soft agar were quantitated and plotted in the form of bar graphs. (C) Wild type and SV40-transformed MRC-5 human fetal lung fibroblasts were treated with indicated concentrations of Siomycin A for 48 hrs. Photographs from phase contrast microscopy (top panel) and fluorescent microscopy after DAPI staining (bottom panel) are shown. (D) Apoptotic nuclei from normal and SV40-transformed MRC-5 fibroblasts treated with indicated concentrations of Siomycin A for 24 hrs were scored after DAPI staining and percentage cell death (mean±sd; n=3) is shown. (E) Wild type and SV40-transformed MRC-5 fibroblasts were treated with Siomycin A as indicated for 48 hrs and the cell lysates were used for immunoblotting and probed for levels of survivin and cleaved caspase-3.
as §1
Apoptosis was detected by DAPI (4′,6-diamidino-2-phenylindole) staining. All treatments were done in triplicates in 6-well plates and cells were stained with DAPI and visualized by fluorescent microscopy. Four random fields for each sample were photographed and at least 500 cells per field were counted to estimate apoptosis. The data is represented as mean±sd.

[4] = system: FoxM1; assay: FoxM1 protein (immunoblot) and mRNA (RT-PCR) levels in C3-Luc cells; type: cell-based, human; conditions: 24 hrs
From the text: FIG. 3. Mechanisms of FoxM1 inhibition by Siomycin A. (A) C3-Luc cells treated as indicated were harvested after 8 hrs and cell lysates were used for immunoprecipitation of FoxM1 protein. These samples were resolved on an SDS-PAGE gel and immunoblotted to determine total and phospho-FoxM1 levels. (B) C3-Luc cells treated with Siomycin A or DMSO were harvested 24 hrs later and the lysates were used to determine FoxM1 protein levels by immunoblotting. (C) RNA from C3-Luc cells treated with Siomycin A or DMSO for 24 hrs was used to determine levels of FoxM1 mRNA using real-time quantitative RT-PCR.
Cells treated with Siomycin A or DMSO (control) were harvested 24 hrs later and RNA was extracted using the TRIzol reagent (15596-026; Invitrogen). cDNA was prepared from this RNA using the Bio-Rad cDNA synthesis kit. […]
as §1

[5] = system: Breast cancer cell lines BT-474, MDA-MB-231, T-47D and ZR-75-1; assay: FoxM1 and cleaved caspase-3 immunoblot in breast cancer cell lines; type: cell-based, human; conditions: 5 μM, 48 hrs
Experimental: FIG. 7. […] Breast cancer cell lines BT-474, MDA-MB-231, T-47D and ZR-75-1 were treated with 5 μM Siomycin and thiostrepton, respectively, for 48 hrs and the cell lysates were analyzed for the levels of FoxM1 and cleaved caspase-3 by immunoblotting.
as §1

[6] = system: survivin, and p21^WAF1; assay: Immunoblot of survivin and p21WAF1 in C3-Luc cells; type: cell-based, human; conditions: 24 hrs
Experimental: FIG. 2. Siomycin A inhibits endogenous FoxM1 transcriptional activity. (A) C3-Luc cells without doxycycline induction, were treated with increasing dose of Siomycin A and luciferase activity was determined as described in Example 1. (B) C3-Luc cells treated either with DMSO (control) or Siomycin A were harvested 24 hrs later and the RNA was subjected to real-time RT-PCR for quantitation of mRNA levels of FoxM1 target genes Cdc25B, Survivin, and CENPB. (C) C3-Luc cells treated as indicated were harvested 24 hrs later and used for immunoblot analysis to determine the levels of survivin, and p21^WAF1. β-actin protein levels were used as loading control.
as §1

[7] = system: C3-Luc cells; assay: Soft agar assay (anchorage-independent growth); type: cell-based, human; conditions: 10 μM, 1 μg/mL doxycycline, 4 weeks
Experimental: The assay was done as described previously (21, 22). Briefly C3-Luc cells were plated subconfluently in six-well plates in 0.7% agarose on a 1.4% agarose bed in the presence or absence of 10 μM of Siomycin A and 1 μg/mL of doxycycline. Three times a week, the tissue-culture medium containing these agents was replaced. After 4 weeks, cell colonies that were larger than 1 mm in size were scored.

In the case of C=C(NC(=O)C(=C)NC(=O)c1csc(C2=N[C@@H]3c4csc(n4)[C@H]4NC(=O)c5csc(n5)[C@H]([C@](C)(O)[C@@H](C)O)NC(=O)[C@H]5CSC(=N5)/C(=C/C)NC(=O)[C@H]([C@@H](C)O)NC(=O)c5csc(n5)[C@]3(CC2)NC(=O)[C@H](C)NC(=O)C(=C)NC(=O)C(=C)NC(=O)[C@H](C(C)C)N[C@@H]2C=Cc3c([C@H](C)O)cc(nc3[C@H]2O)C(=O)O[C@@H]4C)n1)C(N)=O [Siomycin A], the “pro-apoptotic activity in screen” value [1] is given as “identified in a screen for pro-apoptotic compounds”, the FoxM1 protein expression [2] is given as “repress FoxM1 protein expression” and the “apoptosis (cleaved caspase-3)” value [2] is given as “induce apoptosis”. The “cleavage of caspase-3” value ([3]; 48 hrs, immunoblot) was “showed cleavage of caspase-3”, the survivin levels ([3]; 48 hrs, immunoblot) was “effectively repress survivin levels” and the “apoptosis / cell death” value ([3]; forty-eight hours after treatment) was “dose dependent apoptosis”. The “FoxM1 mRNA levels” value [4] was “significantly decreased”, the FoxM1 protein levels [4] was “significantly decreased” and the FoxM1 expression [5] was “inhibit FoxM1 expression”. The “apoptosis (cleaved caspase-3)” value [5] was “induce apoptosis”, the “p21^WAF1 protein levels” value [6] was “increase in its protein levels” and the “protein levels of survivin” value [6] was “dramatically reduced”. For the same compound, the “anchorage-independent growth (number of colonies on soft agar)” value [7] was “dramatically reduced the anchorage-independent growth to less than basal untreated value”.
